{
  "source": "patent US5969017A",
  "about": "“Methods of treating or preventing cardiac arrhythmia” (Merck & Co., Inc., priority 1997, dated 1999)",
  "origin": "cited, not measured here",
  "key": {"IKr": {"tested_on": "IKr", "conditions": "background; cited from earlier work"}, "K+ currents": {"tested_on": "K+ currents", "conditions": "0.4 mM as printed; cited from earlier work"}, "L-type Ca2+ channels": {"tested_on": "L-type Ca2+ channels", "conditions": "Kass 1982; cited from earlier work"}, "IKs": {"target": "T1, IKs (Cavia porcellus, UniProt O70344)", "T1 construct": "Guinea pig ventricular myocytes were isolated; endogenous in cells; host or cells: isolated guinea pig ventricular myocytes", "T1 sequence (O70344 whole entry)": "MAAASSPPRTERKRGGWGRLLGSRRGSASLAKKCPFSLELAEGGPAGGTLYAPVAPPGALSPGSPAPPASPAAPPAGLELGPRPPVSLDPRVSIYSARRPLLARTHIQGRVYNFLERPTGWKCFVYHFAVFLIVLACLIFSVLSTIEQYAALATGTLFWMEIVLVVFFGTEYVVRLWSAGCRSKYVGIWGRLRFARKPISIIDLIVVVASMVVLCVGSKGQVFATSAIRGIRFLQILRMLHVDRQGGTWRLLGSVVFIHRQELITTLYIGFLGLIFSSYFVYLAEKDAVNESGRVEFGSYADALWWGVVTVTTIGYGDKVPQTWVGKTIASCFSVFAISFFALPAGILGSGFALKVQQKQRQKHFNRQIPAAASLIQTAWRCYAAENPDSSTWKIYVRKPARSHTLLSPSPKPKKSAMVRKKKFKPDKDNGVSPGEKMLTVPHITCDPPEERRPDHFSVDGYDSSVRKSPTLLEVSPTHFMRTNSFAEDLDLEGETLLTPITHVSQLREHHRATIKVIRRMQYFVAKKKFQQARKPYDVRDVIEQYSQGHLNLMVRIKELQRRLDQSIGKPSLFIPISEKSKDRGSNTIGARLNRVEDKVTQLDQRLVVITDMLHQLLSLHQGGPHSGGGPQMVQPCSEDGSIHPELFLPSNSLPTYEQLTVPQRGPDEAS", "T1 sequence (Q60409 whole entry partner)": "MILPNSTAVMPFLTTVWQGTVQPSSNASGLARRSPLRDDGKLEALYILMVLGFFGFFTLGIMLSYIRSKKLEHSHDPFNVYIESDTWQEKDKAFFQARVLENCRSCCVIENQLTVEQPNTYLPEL", "conditions": "Balser et al., guinea pig ventricular myocytes; cited from earlier work"}, "INa": {"tested_on": "INa", "conditions": "background; cited from earlier work"}, "ICa": {"tested_on": "ICa", "conditions": "background; cited from earlier work"}},
  "data": [
    {"smiles": "CS(=O)(=O)Nc1ccc2c(c1)C(O)CC1(CCN(C3CCc4cc(C#N)ccc4C3)CC1)O2", "note": "(single isomer, unassigned) [MK-499, methanesulfonamide--N--[1'-6-cyano-1,2,3,4-tetrahydro-2-naphthalenyl)-3,4-dihydro-4-hydroxyspiro[2H-1-benzopyran-2,4'-piperidin]-6yl], (+)-, monochloride]", "values": [
      {"measurement": "block of IKr (in words)", "setting": "IKr", "value": "predominantly, if not exclusively, block IKr"}
    ]},
    {"smiles": "COC(=O)C1=C(C)NC(C)=C(C(=O)OCC(C)C)C1c1ccccc1[N+](=O)[O-]", "note": "(centres unmarked) [Nisoldipine]", "values": [
      {"measurement": "effect on K+ currents (in words)", "setting": "K+ currents", "value": "no effect on K^+ currents"},
      {"measurement": "block of L-type Ca2+ channels (in words)", "setting": "L-type Ca2+ channels", "value": "relatively specific blocker"}
    ]},
    {"smiles": "CCCCc1oc2ccccc2c1C(=O)c1cc(I)c(OCCN(CC)CC)c(I)c1", "note": "[amiodarone]", "values": [
      {"measurement": "block of IKs (in words)", "setting": "IKs", "value": "blocker of IKs"},
      {"measurement": "block of INa (in words)", "setting": "INa", "value": "blocks INa"},
      {"measurement": "block of ICa (in words)", "setting": "ICa", "value": "blocks INa and ICa"}
    ]},
    {"smiles": "CC(C)NC[C@@H](O)c1ccc(NS(C)(=O)=O)cc1", "note": "[d-sotalol]", "values": [
      {"measurement": "block of IKr (in words)", "setting": "IKr", "value": "predominantly, if not exclusively, block IKr"}
    ]},
    {"smiles": "CN(CCOc1ccc(NS(C)(=O)=O)cc1)CCc1ccc(NS(C)(=O)=O)cc1", "note": "[dofetilide]", "values": [
      {"measurement": "block of IKr (in words)", "setting": "IKr", "value": "predominantly, if not exclusively, block IKr"}
    ]}
  ]
}
